Experimental data reported in EP0294307B1, “3-Arylcarbamoyl-5-aminomethyl-oxazolidines, and their salts with pharmaceutically acceptable acids” (CORTIAL S.A., priority 1987, dated 1988).

Assays:
souris = test: Toxicity: mortality in mice after oral or intraperitoneal administration; type: in vivo
[1] = test system: rat génétiquement hypertendu; test: Arterial blood pressure in genetically hypertensive rats after oral administration; type: in vivo; details: 60mg/kg voie orale
Protocol: Administré chez le rat génétiquement hypertendu à la dose de 60mg/kg par voie orale le COR3267 entraine une diminution de la pression artérielle de 8, 12 et 14 %, ces variations étant respectivement mesurées 2, 4 et 6 heures après l'administration.

candida albicans = test: In vitro antifungal activity by standard dilution techniques; type: cell-based; details: concentration de 20 microgramme par ml
From the text: In vitro une activité antifongique a été mise en évidence vis à vis de candida albicans pour le COR3296. L'activité observée par des techniques de dilution standard est significative à la concentration de 20 microgramme par ml.

[2] = voie intrapéritonéale, 200mg/kg

Compound | mortalité (souris; [2]) | mortalité (souris; voie orale, 300mg/kg) | diminution de la pression artérielle ([1]; 2 heures après l'administration) [%] | diminution de la pression artérielle ([1]; 4 heures après l'administration) [%] | diminution de la pression artérielle ([1]; 6 heures après l'administration) [%] | activité antifongique (candida albicans)
N=C1OC(CN2CCN(c3ccccn3)CC2)CN1C(=O)Nc1ccccc1 (stereo not drawn) [COR3263, Phényl carbamoyl-3 imino-2 ((pyridyl-2)-4 pipérazinylméthyl)-5 oxazolidine] | aucune mortalité | aucune mortalité | – | – | – | –
Chlorhydrate de la phényl carbamoyl-3, (phényl-4 pipérazinylméthyl)-5 oxazolidinone-2 [COR3267] | aucune mortalité | aucune mortalité | 8 | 12 | 14 | –
Chlorhydrate de la phényl carbamoyl-3 ((fluoro-4 phényl)-4 pipérazinylméthyl)-5 oxazolidinone-2 [COR3265] | aucune mortalité | aucune mortalité | – | – | – | –
N=C1OC(CN2CCN(c3ccccc3)CC2)CN1C(=O)Nc1ccccc1 (stereo not drawn) [COR3262, Phényl carbamoyl-3, imino-2, (phényl-4 pipérazinylméthyl)-5 oxazolidine] | aucune mortalité | aucune mortalité | – | – | – | –
N=C1OC(CN2CCN(c3cccc(Cl)c3)CC2)CN1C(=O)Nc1ccccc1 (stereo not drawn) [COR3279, Phényl carbamoyl-3 imino-2 ((chloto-3 phényl)-4 pipérazinylméthyl)-5 oxazolidine] | aucune mortalité | aucune mortalité | – | – | – | –
N=C1OC(CN2CCN(c3ccc(F)cc3)CC2)CN1C(=O)Nc1ccccc1 (stereo not drawn) [COR3278, Phényl carbamoyl-3 imino-2 ((fluoro-4 phényl)-4 pipérazinylméthyl)-5 oxazolidine] | aucune mortalité | aucune mortalité | – | – | – | –
N=C1OC(CN2CCN(c3ccccc3)CC2)CN1C(=S)Nc1ccccc1 (stereo not drawn) [COR3296, Phényl thiocarbamoyl-3 imino-2 (phényl-4 pipérazinylméthyl)-5 oxazolidine] | aucune mortalité | aucune mortalité | – | – | – | significative
O=C(Nc1ccccc1)N1CC(CN2CCN(c3cccc(C(F)(F)F)c3)CC2)OC1=O (stereo not drawn) [COR3276, Phényl carbamoyl-3 ((trifluorométhyl-3 phényl)-4 pipérazinylméthyl)-5 oxazolidinone-2] | aucune mortalité | aucune mortalité | – | – | – | –
Chlorhydrate de la phényl carbamoyl-3 ((chloro-3 phényl)-4 pipérazinylméthyl)-5 oxazolidinone-2 [COR3277] | aucune mortalité | aucune mortalité | – | – | – | –
N=C1OC(CN2CCN(c3cccc(C(F)(F)F)c3)CC2)CN1C(=O)Nc1ccccc1 (stereo not drawn) [COR3266, Phényl carbamoyl-3 imino-2 ((trifluorométhyl-3 phényl)-4 pipérazinylméthyl)-5 oxazolidine] | aucune mortalité | aucune mortalité | – | – | – | –
